For this test, the system named is YAP/TAZ-TEAD transcription. Description: Reporter gene assay for measuring the inhibition of YAP/TAZ-TEAD transcription (TEAD-responsive element luciferase reporter, Hek293T cells). Format: cell-based. As to conditions: Hek293T cells transfected with TEAD-responsive element luciferase reporter, 24 hours incubation. The protocol: Hek293T cells were cultured in DMEM supplemented with 10% fetal bovine serum, Sodium pyruvate, Sodium bicarbonate, L-glutamine. The cells were harvested and transiently transfected with TEAD-responsive element luciferase reporter. Transfected cells were plated in 384-well plate containing pre-diluted compounds. After 24 hours incubation at 37° C./5% CO2, assay plates were cooled to room temperature and levelled to an equal volume per well, prior to the addition of 25 uL luciferase substrate SteadyLite (Perkin Elmer)/well. The plate was shaken for 10 min at 600 rpm, centrifuged for 1 min at 500 rpm and measured with an Envision reader (PerkinElmer). The amount of relative light units produced by the TEAD reporter was used to calculate the percentage of inhibition.
The percent of reporter inhibition was calculated in the presence of a positive control inhibitor (100% inhibition) versus a condition with the presence of the vehicle basal activity of the reporter (0% inhibition). The ability of a test compound to inhibit this activity was determined as: Percentage inhibition=[1-((RLU determined in the presence of vehicle−RLU determined for sample with test compound present) divided by (RLU determined in the presence of vehicle−RLU determined for sample with positive control inhibitor))]*100.
The activities of example compounds tested are depicted in Table 3. The activity ranges A, B and C refer to IC50 values in the reporter gene assay as follows: “A”: IC50<1 μM; “B”: 1 μM≤IC50 10 μM and “C”: IC50>10 μM; NT=not tested.

Molecules are shown by their SMILES. pIC50: −log10 of the molar value.

As to `C=CC(=O)NCC1Cc2ncccc2N(c2ccc(C(F)(F)F)cc2)C1` (single isomer, unassigned) [Cpd. No. 10-En2, (R)- or (S)-N-((1-(4-(trifluoromethyl)phenyl)-1,2,3,4-tetrahydro-1,5-naphthyridin-3-yl)methyl)acrylamide], the pIC50 is above 6.00.
Compound `CC(=O)NCC1Cc2ncccc2N(c2ccc(C(F)(F)F)cc2)C1` (single isomer, unassigned) [Cpd. No. 12-En1, (R)- or (S)-N-((1-(4-(trifluoromethyl)phenyl)-1,2,3,4-tetrahydro-1,5-naphthyridin-3-yl)methyl)acetamide] gave a negative-log IC50 (pIC50) (Homo sapiens, HEK-293T, 24 h) of 5.00 to 6.00.
The same measure, in the same setting: as for `COC(=O)NCC1Cc2ncccc2N(c2ccc(C(F)(F)F)cc2)C1` (single isomer, unassigned) [Cpd. No. 15-En2, (R)- or (S)-methyl ((1-(4-(trifluoromethyl)phenyl)-1,2,3,4-tetrahydro-1,5-naphthyridin-3-yl)methyl)carbamate], the figure is 5.00 to 6.00; as for `CCC(=O)NCC1Cc2ncccc2N(c2ccc(C(F)(F)F)cc2)C1` (single isomer, unassigned) [Cpd. No. 17-En1, (R)- or (S)-N-((1-(4-(trifluoromethyl)phenyl)-1,2,3,4-tetrahydro-1,5-naphthyridin-3-yl)methyl)propionamide], 5.00 to 6.00; as for `COc1ccc2c(n1)CC(CNC(C)=O)CN2c1ccc(C(F)(F)F)cc1` (single isomer, unassigned) [Cpd. No. 22-En1, (R)- or (S)-N-((6-methoxy-1-(4-(trifluoromethyl)phenyl)-1,2,3,4-tetrahydro-1,5-naphthyridin-3-yl)methyl)acetamide], 5.00 to 6.00.
For `CC(=O)NCC1Cc2nc(C)ccc2N(c2ccc(C(F)(F)F)cc2)C1` (single isomer, unassigned) [Cpd. No. 26-En1, (R)- or (S)-N-((6-methyl-1-(4-(trifluoromethyl)phenyl)-1,2,3,4-tetrahydro-1,5-naphthyridin-3-yl)methyl)acetamide], the negative-log IC50 (pIC50) (Homo sapiens, HEK-293T, 24 h) was above 6.00.
The compound `[2H]C([2H])([2H])C(=O)NCC1Cc2ncccc2N(c2ccc(C(F)(F)F)cc2)C1` (single isomer, unassigned) [Cpd. No. 34-En1, (R)- or (S)-N-((1-(4-(trifluoromethyl)phenyl)-1,2,3,4-tetrahydro-1,5-naphthyridin-3-yl)methyl)acetamide-2,2,2-d3] had a pIC50 of 5.00 to 6.00.
Take `O=C(CC(F)(F)F)NCC1Cc2ncccc2N(c2ccc(C(F)(F)F)cc2)C1` (single isomer, unassigned) [Cpd. No. 38-En1, (R)- or (S)-3,3,3-trifluoro-N-((1-(4-(trifluoromethyl)phenyl)-1,2,3,4-tetrahydro-1,5-naphthyridin-3-yl)methyl)propanamide]: the pIC50 (Homo sapiens, HEK-293T, 24 h) is 5.00 to 6.00.
The compound `O=C(CC(F)(F)F)NCC1Cc2ncccc2N(c2ccc(C(F)(F)F)cc2)C1` (single isomer, unassigned) [Cpd. No. 38-En2, (R)- or (S)-3,3,3-trifluoro-N-((1-(4-(trifluoromethyl)phenyl)-1,2,3,4-tetrahydro-1,5-naphthyridin-3-yl)methyl)propanamide] showed a pIC50 above 6.00.
Same read-out and setting: as for `CC(=O)NCC1(C)Cc2ncccc2N(c2ccc(C(F)(F)F)cc2)C1` (single isomer, unassigned) [Cpd. No. 47-En2, (R)- or (S)-N-((3-methyl-1-(4-(trifluoromethyl)phenyl)-1,2,3,4-tetrahydro-1,5-naphthyridin-3-yl)methyl)acetamide], the figure is below 5.00.
Where the note is “Homo sapiens, HEK-293T, 24 h”, `CCC(=O)NCC1Cc2c(Oc3cccnc3)cccc2N(c2ccc(C(F)(F)F)cc2)C1` (centres unmarked) [Cpd. No. 1, N-((5-(pyridin-3-yloxy)-1-(4-(trifluoromethyl)phenyl)-1,2,3,4-tetrahydroquinolin-3-yl)methyl)propionamide] gave a pIC50 above 6.00.
Same read-out and setting: for `CS(=O)(=O)NCC1Cc2c(Oc3cccnc3)cccc2N(c2ccc(C(F)(F)F)cc2)C1` (centres unmarked) [Cpd. No. 2, N-((5-(pyridin-3-yloxy)-1-(4-(trifluoromethyl)phenyl)-1,2,3,4-tetrahydroquinolin-3-yl)methyl)methanesulfonamide] the value was 5.00 to 6.00.
Same read-out and setting: for `C=CC(=O)NCC1Cc2c(Oc3cccnc3)cccc2N(c2ccc(C(F)(F)F)cc2)C1` (centres unmarked) [Cpd. No. 3, N-((5-(pyridin-3-yloxy)-1-(4-(trifluoromethyl)phenyl)-1,2,3,4-tetrahydroquinolin-3-yl)methyl)acrylamide] the value was above 6.00.
`CCC(=O)NCC1Cc2c(OCc3cc(=O)[nH]c(=O)[nH]3)cccc2N(c2ccc(C(F)(F)F)cc2)C1` (centres unmarked) [Cpd. No. 5, N-((5-((2,6-dioxo-1,2,3,6-tetrahydropyrimidin-4-yl)methoxy)-1-(4-(trifluoromethyl)phenyl)-1,2,3,4-tetrahydroquinolin-3-yl)methyl)propionamide] gave a pIC50 (Homo sapiens, HEK-293T, 24 h) above 6.00.
The same measure, in the same setting: as for `CS(=O)(=O)NCC1Cc2c(OCc3cc(=O)[nH]c(=O)[nH]3)cccc2N(c2ccc(C(F)(F)F)cc2)C1` (centres unmarked) [Cpd. No. 8, N-((5-((2,6-dioxo-1,2,3,6-tetrahydropyrimidin-4-yl)methoxy)-1-(4-(trifluoromethyl)phenyl)-1,2,3,4-tetrahydroquinolin-3-yl)methyl)methanesulfonamide], the figure is 5.00 to 6.00; as for `CS(=O)(=O)NCC1Cc2c(OCc3cc[nH]c(=O)c3)cccc2N(c2ccc(C(F)(F)F)cc2)C1` (centres unmarked) [Cpd. No. 9, N-((5-((2-oxo-1,2-dihydropyridin-4-yl)methoxy)-1-(4-(trifluoromethyl)phenyl)-1,2,3,4-tetrahydroquinolin-3-yl)methyl)methanesulfonamide], above 6.00; as for `O=C(O)CC1Cc2ncccc2N(c2ccc(C(F)(F)F)cc2)C1` (centres unmarked) [Cpd. No. 13, 2-(1-(4-(trifluoromethyl)phenyl)-1,2,3,4-tetrahydro-1,5-naphthyridin-3-yl)acetic acid], 5.00 to 6.00.
`CC(=O)NCC1Cc2c(ccc[n+]2[O-])N(c2ccc(C(F)(F)F)cc2)C1` (centres unmarked) [Cpd. No. 16, 7-(acetamidomethyl)-5-(4-(trifluoromethyl)phenyl)-5,6,7,8-tetrahydro-1,5-naphthyridine 1-oxide] showed a pIC50 (Homo sapiens, HEK-293T, 24 h) of 5.00 to 6.00.
For the compound `CCC(=O)NCC1Cc2ncccc2N(c2ccc(C(F)(F)F)cc2)C1` (centres unmarked) [Cpd. No. 17, N-((1-(4-(trifluoromethyl)phenyl)-1,2,3,4-tetrahydro-1,5-naphthyridin-3-yl)methyl)propionamide], the pIC50 (Homo sapiens, HEK-293T, 24 h) is above 6.00.
The compound `O=C(NCC1Cc2ncccc2N(c2ccc(C(F)(F)F)cc2)C1)C1CC1` (centres unmarked) [Cpd. No. 18, N-((1-(4-(trifluoromethyl)phenyl)-1,2,3,4-tetrahydro-1,5-naphthyridin-3-yl)methyl)cyclopropanecarboxamide] gave a pIC50 (Homo sapiens, HEK-293T, 24 h) above 6.00.
Where the note is “Homo sapiens, HEK-293T, 24 h”, `CNS(=O)(=O)NCC1Cc2ncccc2N(c2ccc(C(F)(F)F)cc2)C1` (centres unmarked) [Cpd. No. 19, N-(methylsulfamoyl)-1-[1-[4-(trifluoromethyl)phenyl]-3,4-dihydro-2H-1,5-naphthyridin-3-yl]methanamine] showed a pIC50 above 6.00.
Same read-out and setting: for `O=C(O)/C=C/C1Cc2ncccc2N(c2ccc(C(F)(F)F)cc2)C1` (centres unmarked) [Cpd. No. 20, (E)-3-(1-(4-(trifluoromethyl)phenyl)-1,2,3,4-tetrahydro-1,5-naphthyridin-3-yl)acrylic acid] the value was above 6.00; for `C=CC(=O)NCC1Cc2nc(OC)ccc2N(c2ccc(C(F)(F)F)cc2)C1` (centres unmarked) [Cpd. No. 21, N-((6-methoxy-1-(4-(trifluoromethyl)phenyl)-1,2,3,4-tetrahydro-1,5-naphthyridin-3-yl)methyl)acrylamide], above 6.00.
Regarding `COc1ccc2c(n1)CC(CNC(C)=O)CN2c1ccc(C(F)(F)F)cc1` (centres unmarked) [Cpd. No. 22, N-((6-methoxy-1-(4-(trifluoromethyl)phenyl)-1,2,3,4-tetrahydro-1,5-naphthyridin-3-yl)methyl)acetamide], where the note is “Homo sapiens, HEK-293T, 24 h”, the pIC50 was above 6.00.
The same measure, in the same setting: as for `CC(=O)NCC1Cc2nc(O)ccc2N(c2ccc(C(F)(F)F)cc2)C1` (centres unmarked) [Cpd. No. 23, N-((6-hydroxy-1-(4-(trifluoromethyl)phenyl)-1,2,3,4-tetrahydro-1,5-naphthyridin-3-yl)methyl)acetamide], the figure is below 5.00; as for `O=C(O)COC1Cc2ncccc2N(c2ccc(C(F)(F)F)cc2)C1` (centres unmarked) [Cpd. No. 24, 2-((1-(4-(trifluoromethyl)phenyl)-1,2,3,4-tetrahydro-1,5-naphthyridin-3-yl)oxy)acetic acid], below 5.00.
Take `FC(F)(F)c1ccc(N2CC(CNC3COC3)Cc3ncccc32)cc1` (centres unmarked) [Cpd. No. 25, N-((1-(4-(trifluoromethyl)phenyl)-1,2,3,4-tetrahydro-1,5-naphthyridin-3-yl)methyl)oxetan-3-amine]: the pIC50 (Homo sapiens, HEK-293T, 24 h) is below 5.00.
`CC(=O)NCC1Cc2c(cc[nH]c2=O)N(c2ccc(C(F)(F)F)cc2)C1` (centres unmarked) [Cpd. No. 27, N-((5-oxo-1-(4-(trifluoromethyl)phenyl)-1,2,3,4,5,6-hexahydro-1,6-naphthyridin-3-yl)methyl)acetamide] gave a pIC50 (Homo sapiens, HEK-293T, 24 h) below 5.00.
Take `O=C1CC[C@@H](C(=O)NCC2Cc3ncccc3N(c3ccc(C(F)(F)F)cc3)C2)N1` (stereo partly drawn) [Cpd. No. 28, (2S)-5-oxo-N-((1-(4-(trifluoromethyl)phenyl)-1,2,3,4-tetrahydro-1,5-naphthyridin-3-yl)methyl)pyrrolidine-2-carboxamide]: for the setting “Homo sapiens, HEK-293T, 24 h”, the pIC50 is below 5.00.

For orientation: pIC50 means the negative decadic logarithm of the IC50, by convention in mol/L.

The record behind these values is patent publication US20240417398A1, “TETRAHYDRONAPTHYRIDINE AND RELATED ANALOGS FOR INHIBITING YAP/TAZ-TEAD” (SpringWorks Therapeutics, Inc., priority 2023, published 2024).
